pIC50: −log10 of the molar value. Where “and” joins values, the source holds several entries; their conditions need not be identical. Equal entries are not always repeated.
Tested on: 945468-187-T-J3-PDC spheroids with HUVEC/MSC, viability
Assay: Anticancer human tumor 945468-187-T-J3-PDC patient-derived rectal carcinoma cell line growth inhibition [PI3K]
Conditions: for viability, T/C: stronger effect = lower value
Method in brief: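 Spheroid viability read-out. Co-cultures contained the tumor line plus HUVEC and human MSCs. Each agent was paired with a PI3K inhibitor (inavolisib, alpelisib, duvelisib, copanlisib) across half-log dilutions starting at clinical Cmax, or at 10 microM when Cmax was unknown.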

[1] = curve of first compound, second compound 0.0316 µM
[2] = curve of first compound, second compound 0.1 µM
[3] = curve of first compound, second compound 0.316 µM
[4] = curve of first compound, second compound 1 µM
[5] = second compound 0.0316 µM, first compound 0.0316 µM
[6] = second compound 0.0316 µM, first compound 0.1 µM
[7] = second compound 0.0316 µM, first compound 0.316 µM
[8] = second compound 0.0316 µM, first compound 1 µM
[9] = second compound 0.0316 µM, first compound 3.16 µM
[10] = second compound 0.0316 µM, first compound 10 µM
[11] = second compound 0.1 µM, first compound 0.0316 µM
[12] = second compound 0.1 µM, first compound 0.1 µM
[13] = second compound 0.1 µM, first compound 0.316 µM
[14] = second compound 0.1 µM, first compound 1 µM
[15] = second compound 0.1 µM, first compound 3.16 µM
[16] = second compound 0.1 µM, first compound 10 µM
[17] = second compound 0.316 µM, first compound 0.0316 µM
[18] = second compound 0.316 µM, first compound 0.1 µM
[19] = second compound 0.316 µM, first compound 0.316 µM
[20] = second compound 0.316 µM, first compound 1 µM
[21] = second compound 0.316 µM, first compound 3.16 µM
[22] = second compound 0.316 µM, first compound 10 µM
[23] = second compound 1 µM, first compound 0.0316 µM
[24] = second compound 1 µM, first compound 0.1 µM
[25] = second compound 1 µM, first compound 0.316 µM
[26] = second compound 1 µM, first compound 1 µM
[27] = second compound 1 µM, first compound 3.16 µM
[28] = second compound 1 µM, first compound 10 µM
[29] = curve of first compound, second compound 3.16 µM
[30] = curve of first compound, second compound 10 µM
[31] = second compound 3.16 µM, first compound 0.0316 µM
[32] = second compound 3.16 µM, first compound 0.1 µM
[33] = second compound 3.16 µM, first compound 0.316 µM
[34] = second compound 3.16 µM, first compound 1 µM
[35] = second compound 3.16 µM, first compound 3.16 µM
[36] = second compound 3.16 µM, first compound 10 µM
[37] = second compound 10 µM, first compound 0.0316 µM
[38] = second compound 10 µM, first compound 0.1 µM
[39] = second compound 10 µM, first compound 0.316 µM
[40] = second compound 10 µM, first compound 1 µM
[41] = second compound 10 µM, first compound 3.16 µM
[42] = second compound 10 µM, first compound 10 µM
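Note: spheroids exposed to agents for 7 days before viability read.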
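Throughout, for viability, T/C: 100% = DMSO vehicle control viability.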

CC(Cn1ccc(-c2ccc(C#N)c(Cl)c2)n1)NC(=O)c1cc(C(C)O)[nH]n1 (stereo not drawn) + CC(Nc1ccc2c(c1)OCCn1cc(N3C(=O)OCC3C(F)F)nc1-2)C(N)=O
pIC50 (curve of first compound, second compound 0.00316 µM): < 5.00
pIC50 (curve of first compound, second compound 0.01 µM): < 5.00
pIC50 [1]: < 5.00
pIC50 [2]: < 5.00
pIC50 [3]: < 5.00
pIC50 [4]: < 5.00
viability, T/C (second compound 0.00316 µM, first compound 0.0316 µM): 95.2%
viability, T/C (second compound 0.00316 µM, first compound 0.1 µM): 99.4%
viability, T/C (second compound 0.00316 µM, first compound 0.316 µM): 106%
viability, T/C (second compound 0.00316 µM, first compound 1 µM): 112%
viability, T/C (second compound 0.00316 µM, first compound 3.16 µM): 114%
viability, T/C (second compound 0.00316 µM, first compound 10 µM): 99.6%
viability, T/C (second compound 0.01 µM, first compound 0.0316 µM): 111%
viability, T/C (second compound 0.01 µM, first compound 0.1 µM): 104%
viability, T/C (second compound 0.01 µM, first compound 0.316 µM): 93.6%
viability, T/C (second compound 0.01 µM, first compound 1 µM): 111%
viability, T/C (second compound 0.01 µM, first compound 3.16 µM): 114%
viability, T/C (second compound 0.01 µM, first compound 10 µM): 106%
viability, T/C [5]: 115%
viability, T/C [6]: 107%
viability, T/C [7]: 101%
viability, T/C [8]: 111%
viability, T/C [9]: 109%
viability, T/C [10]: 107%
viability, T/C [11]: 109%
viability, T/C [12]: 115%
viability, T/C [13]: 115%
viability, T/C [14]: 114%
viability, T/C [15]: 107%
viability, T/C [16]: 99.1%
viability, T/C [17]: 107%
viability, T/C [18]: 107%
viability, T/C [19]: 96.7%
viability, T/C [20]: 115%
viability, T/C [21]: 108%
viability, T/C [22]: 102%
viability, T/C [23]: 80.5%
viability, T/C [24]: 68.6%
viability, T/C [25]: 75.4%
viability, T/C [26]: 71.2%
viability, T/C [27]: 74.8%
viability, T/C [28]: 71.1%

CC1(C)CCC(CN2CCN(c3ccc(C(=O)NS(=O)(=O)c4ccc(NCC5CCOCC5)c([N+](=O)[O-])c4)c(Oc4cnc5[nH]ccc5c4)c3)CC2)=C(c2ccc(Cl)cc2)C1 + CC(Nc1ncnc2nc[nH]c12)c1cc2cccc(Cl)c2c(=O)n1-c1ccccc1
pIC50 [1]: < 5.00
pIC50 [2]: < 5.00
pIC50 [3]: < 5.00
pIC50 [4]: < 5.00
pIC50 [29]: < 5.00
pIC50 [30]: < 5.00
viability, T/C [5]: 99.2%
viability, T/C [6]: 91.9%
viability, T/C [7]: 95.7%
viability, T/C [8]: 96%
viability, T/C [9]: 117%
viability, T/C [10]: 114%
viability, T/C [11]: 94.4%
viability, T/C [12]: 95.8%
viability, T/C [13]: 98.7%
viability, T/C [14]: 102%
viability, T/C [15]: 105%
viability, T/C [16]: 106%
viability, T/C [17]: 111%
viability, T/C [18]: 106%
viability, T/C [19]: 104%
viability, T/C [20]: 118%
viability, T/C [21]: 113%
viability, T/C [22]: 104%
viability, T/C [23]: 100%
viability, T/C [24]: 94%
viability, T/C [25]: 92.6%
viability, T/C [26]: 98.6%
viability, T/C [27]: 110%
viability, T/C [28]: 110%
viability, T/C [31]: 100%
viability, T/C [32]: 107%
viability, T/C [33]: 95.4%
viability, T/C [34]: 109%
viability, T/C [35]: 115%
viability, T/C [36]: 98.2%
viability, T/C [37]: 105%
viability, T/C [38]: 95.6%
viability, T/C [39]: 97.3%
viability, T/C [40]: 103%
viability, T/C [41]: 120%
viability, T/C [42]: 93.9%

CC(C)NCC(C(=O)N1CCN(c2ncnc3c2C(C)CC3O)CC1)c1ccc(Cl)cc1 (stereo not drawn) + CC(Nc1ncnc2nc[nH]c12)c1cc2cccc(Cl)c2c(=O)n1-c1ccccc1
pIC50 [1]: 5.34
pIC50 [2]: 5.16
pIC50 [3]: 5.18
pIC50 [4]: 5.08
pIC50 [29]: 5.53
pIC50 [30]: 5.69
viability, T/C [5]: 112%
viability, T/C [6]: 100%
viability, T/C [7]: 104%
viability, T/C [8]: 78.9%
viability, T/C [9]: 56.3%
viability, T/C [10]: 38.4%
viability, T/C [11]: 119%
viability, T/C [12]: 92.3%
viability, T/C [13]: 86%
viability, T/C [14]: 88.6%
viability, T/C [15]: 62.6%
viability, T/C [16]: 40.5%
viability, T/C [17]: 97.2%
viability, T/C [18]: 93.2%
viability, T/C [19]: 94.6%
viability, T/C [20]: 87.6%
viability, T/C [21]: 63.5%
viability, T/C [22]: 42.7%
viability, T/C [23]: 114%
viability, T/C [24]: 103%
viability, T/C [25]: 85.3%
viability, T/C [26]: 86%
viability, T/C [27]: 58.6%
viability, T/C [28]: 48.1%
viability, T/C [31]: 98.3%
viability, T/C [32]: 91.8%
viability, T/C [33]: 84.2%
viability, T/C [34]: 79.2%
viability, T/C [35]: 46.5%
viability, T/C [36]: 32.4%
viability, T/C [37]: 90.7%
viability, T/C [38]: 88%
viability, T/C [39]: 82.8%
viability, T/C [40]: 70.8%
viability, T/C [41]: 37.5%
viability, T/C [42]: 28.2%

C[C@@H](NC(=O)c1ncnc(N)c1Cl)c1ncc(C(=O)Nc2cc(C(F)(F)F)c(Cl)cn2)s1
viability, T/C (compound 0.0316 µM): 94.2% [middle of 4 runs]
viability, T/C (compound 0.1 µM): 104% [middle of 4 runs]
viability, T/C (compound 0.316 µM): 101% (2×) and 91.3% and 98.2%
viability, T/C (compound 1 µM): 105% [middle of 4 runs]
viability, T/C (compound 3.16 µM): 106% [middle of 4 runs]
viability, T/C (compound 10 µM): 108% [middle of 4 runs]
pIC50 (curve of compound): < 5.00

— PubChem BioAssay AID1963968 (Molecular Pharmacology Branch, DTP, NCI, 2024)
